The text below walks through data of the supplement of paper PMC10307832.

Common to all, as to test: relative viability (nuclei count vs DMSO), 5 days (fraction); higher = more cells survive
Compound in the experiment “Ponatinib + Dasatinib”: Cc1ccc(C(=O)Nc2ccc(CN3CCN(C)CC3)c(C(F)(F)F)c2)cc1C#Cc1cnc2cccnn12 [Ponatinib] + Cc1nc(Nc2ncc(C(=O)Nc3c(C)cccc3Cl)s2)cc(N2CCN(CCO)CC2)n1 [Dasatinib] (partner 0.075 µM)
The method in brief:
(§1)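 Lung cancer cell lines in 1536-well plates got either a single drug or a fixed anchor-drug dose together with five library-drug doses (not always all listed) in √10 steps, by pin tool, on the day after seeding. Nuclei were counted after 5 days, and relative viability is the treated-to-vehicle ratio of nuclei counts. Values are medians of duplicate plates.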

Compound in the experiment “Ponatinib + Pemetrexed”: Cc1ccc(C(=O)Nc2ccc(CN3CCN(C)CC3)c(C(F)(F)F)c2)cc1C#Cc1cnc2cccnn12 [Ponatinib] + Nc1nc2[nH]cc(CCc3ccc(C(=O)N[C@@H](CCC(=O)O)C(=O)O)cc3)c2c(=O)[nH]1 [Pemetrexed] (partner 0.2 µM)
The method in brief: as §1

Compound in the experiment “Pazopanib + Pictilisib”: Cc1ccc(Nc2nccc(N(C)c3ccc4c(C)n(C)nc4c3)n2)cc1S(N)(=O)=O [Pazopanib] + CS(=O)(=O)N1CCN(Cc2cc3nc(-c4cccc5[nH]ncc45)nc(N4CCOCC4)c3s2)CC1 [Pictilisib] (partner 1 µM)
The method in brief:
as §1

Compound in the experiment “Pazopanib + Luminespib”: Cc1ccc(Nc2nccc(N(C)c3ccc4c(C)n(C)nc4c3)n2)cc1S(N)(=O)=O [Pazopanib] + CCNC(=O)c1noc(-c2cc(C(C)C)c(O)cc2O)c1-c1ccc(CN2CCOCC2)cc1 [Luminespib] (partner 0.01 µM)
The method in brief:
as §1

As to UMC-11, the relative viability came out at 0.465 with Ponatinib + Dasatinib (first compound 0.002 µM); 0.451 in the experiment with Ponatinib + Dasatinib (first compound 0.006325 µM); 0.51 with Ponatinib + Dasatinib (first compound 0.06325 µM); 0.465 with Ponatinib + Dasatinib (first compound 0.2 µM); 0.794 with Ponatinib + Pemetrexed (first compound 0.002 µM); 0.821 in the experiment with Ponatinib + Pemetrexed (first compound 0.006325 µM). Also, the relative viability with Ponatinib + Pemetrexed (first compound 0.06325 µM) worked out at 0.862; with Ponatinib + Pemetrexed (first compound 0.2 µM), 0.685; with Pazopanib + Pictilisib (first compound 0.01 µM), 0.724; with Pazopanib + Pictilisib (first compound 0.03162 µM), 0.879; with Pazopanib + Pictilisib (first compound 0.1 µM) it was 0.787; with Pazopanib + Pictilisib (first compound 0.3162 µM) it was 0.928. The relative viability with Pazopanib + Pictilisib (first compound 1 µM) is 1.13; with Pazopanib + Luminespib (first compound 0.01 µM) it was 1.08; with Pazopanib + Luminespib (first compound 0.03162 µM), 0.994; with Pazopanib + Luminespib (first compound 0.1 µM), 1.06; with Pazopanib + Luminespib (first compound 0.3162 µM) it was 0.98; with Pazopanib + Luminespib (first compound 1 µM), 1.09.
